These are literature values, as cited in patent US20040022740A1, “Macrolide formulations for inhalation and methods of treatment of endobronchial infections” (priority 2003, published 2004).

SMILES strings stand for the structures.

For `CC[C@H]1OC(=O)[C@H](C)[C@@H](O[C@H]2C[C@@](C)(OC)[C@@H](O)[C@H](C)O2)[C@H](C)[C@@H](O[C@@H]2O[C@H](C)C[C@H](N(C)C)[C@H]2O)[C@](C)(O)C[C@@H](C)[C@@H]2N[C@@H](COCCOC)O[C@H]([C@H]2C)[C@]1(C)O` [dirithromycin], under “in humans”, the oral bioavailability is on record as 10-14%. Further, the “elimination into the feces” value (in vivo) was 62-81%.
